Laboratory results taken from ChEMBL document CHEMBL1149541, “Potent macrocyclic antagonists to the motilin receptor presenting novel unnatural amino acids” (Bioorg Med Chem Lett, 2007).

How the values were obtained:
[1] = molecular target: T1, Motilin receptor (Homo sapiens, UniProt O43193); assay: Displacement of [125I]motilin from human motilin receptor expressed in CHO cells; assay type: cell-based
[2] = molecular target: T1, Motilin receptor; assay: Antagonist activity against human motilin receptor in aequoscreen cells assessed as inhibition of motilin induced calcium release by aequorin assay; assay type: functional, cell-based

T1 sequence (O43193 whole entry): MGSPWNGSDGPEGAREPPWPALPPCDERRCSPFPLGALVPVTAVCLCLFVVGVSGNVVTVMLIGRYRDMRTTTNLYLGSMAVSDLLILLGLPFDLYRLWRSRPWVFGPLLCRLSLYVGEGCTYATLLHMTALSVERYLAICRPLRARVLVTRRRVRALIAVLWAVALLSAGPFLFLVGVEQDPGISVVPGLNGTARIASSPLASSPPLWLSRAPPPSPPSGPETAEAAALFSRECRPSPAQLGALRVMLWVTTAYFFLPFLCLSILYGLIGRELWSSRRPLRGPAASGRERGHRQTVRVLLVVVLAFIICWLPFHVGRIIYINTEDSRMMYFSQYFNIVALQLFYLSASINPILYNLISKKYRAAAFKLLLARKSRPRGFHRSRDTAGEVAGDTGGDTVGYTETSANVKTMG

Row | SMILES | Ki [1] [µM] | IC50 [2] [µM]
1 | Cc1nnn(C[C@@H]2NC(=O)[C@@H](C(C)C)NC(=O)[C@@H](Cc3cccc(C(F)(F)F)c3)NCCOc3ccccc3CCCNC2=O)c1C | 0.023 | –
2 | CC(C)[C@H]1NC(=O)[C@@H](Cc2cccc(C(F)(F)F)c2)NCCOc2ccccc2CCCNC(=O)[C@H](CN)NC1=O | 0.015 | 0.008
3 | CC(C)[C@H]1NC(=O)[C@@H](Cc2cccc(Cl)c2)NCCOc2ccccc2CCCNC(=O)[C@H](CNc2nccs2)NC1=O | 0.041 | –
4 | CC(C)[C@H]1NC(=O)[C@@H](Cc2ccc(Cl)cc2)NCCOc2ccccc2CCCNC(=O)[C@H](CN)NC1=O | 0.06 | –
5 | CC(C)[C@H]1NC(=O)[C@@H](Cc2cccc(C(F)(F)F)c2)NCCOc2ccccc2CCCNC(=O)[C@H](CNC(=N)N)NC1=O | 0.006 | 0.028
6 | CC(C)NC[C@@H]1NC(=O)[C@@H](C(C)C)NC(=O)[C@@H](Cc2ccc(O)cc2)NCCOc2ccccc2CCCNC1=O | 0.376 | –
7 | CC(C)[C@H]1NC(=O)[C@@H](Cc2ccc(Cl)cc2)NCCOc2ccccc2CCCNC(=O)[C@H](CNC(N)=O)NC1=O | 0.543 | –
8 | CC(C)[C@H]1NC(=O)[C@@H](Cc2cccc(F)c2)NCCOc2ccccc2CCCNC(=O)[C@H](Cc2cscn2)NC1=O | 0.116 | –
9 | CC(C)[C@H]1NC(=O)[C@@H](Cc2ccc(Cl)cc2)NCCOc2ccccc2CCCNC(=O)[C@H](CN(C)C)NC1=O | 0.016 | –
10 | CC(C)[C@H]1NC(=O)[C@@H](Cc2cccc(Cl)c2)NCCOc2ccccc2CCCNC(=O)[C@H](CNC2=NCCCN2)NC1=O | 0.087 | –
11 | CC(C)[C@H]1NC(=O)[C@@H](Cc2ccc(O)cc2)NCCOc2ccccc2/C=C/CNC(=O)[C@H](CCCN)NC1=O | 0.889 | –
12 | CNC[C@@H]1NC(=O)[C@@H](C(C)C)NC(=O)[C@@H](Cc2cccc(C(F)(F)F)c2)NCCOc2ccccc2CCCNC1=O | 0.006 | 0.003
13 | CC(C)[C@H]1NC(=O)[C@@H](Cc2cccc(Cl)c2)NCCOc2ccccc2CCCNC(=O)[C@H](Cn2cccn2)NC1=O | 0.018 | 0.056
14 | CC(C)[C@H]1NC(=O)[C@@H](Cc2cccc(Cl)c2)NCCOc2ccccc2CCCNC(=O)[C@H](CN)NC1=O | 0.064 | –
15 | CC(C)[C@H]1NC(=O)[C@@H](Cc2cccc(C(F)(F)F)c2)NCCOc2ccccc2CCCNC(=O)[C@H](CNc2ncccn2)NC1=O | 0.02 | –
16 | CC(C)[C@H]1NC(=O)[C@@H](Cc2cccc(Cl)c2)NCCOc2ccccc2CCCNC(=O)[C@H](CCC(=N)N)NC1=O | 0.027 | –
17 | CC(C)[C@H]1NC(=O)[C@@H](Cc2ccc(O)cc2)NCCOc2ccccc2CCCNC(=O)[C@H](CCN)NC1=O | 0.342 | –
18 | CC(=O)NC[C@@H]1NC(=O)[C@@H](C(C)C)NC(=O)[C@@H](Cc2ccc(O)cc2)NCCOc2ccccc2CCCNC1=O | 1.95 | –

The next lines start with the values.

Row | Ki [1] [µM] | IC50 [2] [µM] | SMILES
19 | 0.031 | 0.033 | CNC[C@@H]1NC(=O)[C@@H](C(C)C)NC(=O)[C@@H](Cc2ccc(Cl)cc2)NCCOc2ccccc2CCCNC1=O
20 | 0.051 | – | CC(C)[C@H]1NC(=O)[C@@H](Cc2cccc(Cl)c2)NCCOc2ccccc2CCCNC(=O)[C@H](CN=C2NCCN2)NC1=O
21 | 0.062 | – | CC(C)[C@H]1NC(=O)[C@@H](Cc2cccc(Cl)c2)NCCOc2ccccc2CCCNC(=O)[C@H](Cn2ccnc2)NC1=O
22 | 0.027 | 0.095 | CC(C)[C@H]1NC(=O)[C@@H](Cc2cccc(Cl)c2)NCCOc2ccccc2CCCNC(=O)[C@H](CN(C)C)NC1=O
23 | 0.057 | – | CC(C)[C@H]1NC(=O)[C@@H](Cc2cccc(Cl)c2)NCCOc2ccccc2CCCNC(=O)[C@H](CN=C(N)N)NC1=O
24 | 0.171 | – | CC(C)[C@H]1NC(=O)[C@@H](Cc2ccc(O)cc2)NCCOc2ccccc2CCCNC(=O)[C@H](CN)NC1=O
25 | 0.0046 | 0.002 | CC(C)[C@H]1NC(=O)[C@@H](Cc2cccc(C(F)(F)F)c2)NCCOc2ccccc2CCCNC(=O)[C@H](CN2CCCC2)NC1=O
26 | 0.006 | – | CC(C)[C@H]1NC(=O)[C@@H](Cc2ccc(Cl)cc2)NCCOc2ccccc2CCCNC(=O)[C@H](CN=C(N)N)NC1=O
27 | 0.1 | – | CC(C)[C@H]1NC(=O)[C@@H](Cc2cccc(Cl)c2)NCCOc2ccccc2CCCNC(=O)[C@H](CN/C(N)=N/C#N)NC1=O
28 | 0.021 | – | Cc1nnnn1C[C@@H]1NC(=O)[C@@H](C(C)C)NC(=O)[C@@H](Cc2cccc(C(F)(F)F)c2)NCCOc2ccccc2CCCNC1=O
29 | 0.033 | – | CC(C)[C@H]1NC(=O)[C@@H](Cc2cccc(Cl)c2)NCCOc2ccccc2CCCNC(=O)[C@H](CCN=C(N)N)NC1=O
30 | 0.017 | – | Cc1cnnn1C[C@@H]1NC(=O)[C@@H](C(C)C)NC(=O)[C@@H](Cc2cccc(C(F)(F)F)c2)NCCOc2ccccc2CCCNC1=O
